{"source": "patent US20100144733A1", "about": "“Compounds, compositions and methods comprising heteroaromatic derivatives” (Institute for OneWorld Health, priority 2008, published 2010)", "molecular_target": "T1, CFTR (Homo sapiens, UniProt P13569)", "T1 construct": "endogenous in cells; host or cells: T84 human colonic cells (ECACC)", "T1 sequence (P13569 whole entry)": "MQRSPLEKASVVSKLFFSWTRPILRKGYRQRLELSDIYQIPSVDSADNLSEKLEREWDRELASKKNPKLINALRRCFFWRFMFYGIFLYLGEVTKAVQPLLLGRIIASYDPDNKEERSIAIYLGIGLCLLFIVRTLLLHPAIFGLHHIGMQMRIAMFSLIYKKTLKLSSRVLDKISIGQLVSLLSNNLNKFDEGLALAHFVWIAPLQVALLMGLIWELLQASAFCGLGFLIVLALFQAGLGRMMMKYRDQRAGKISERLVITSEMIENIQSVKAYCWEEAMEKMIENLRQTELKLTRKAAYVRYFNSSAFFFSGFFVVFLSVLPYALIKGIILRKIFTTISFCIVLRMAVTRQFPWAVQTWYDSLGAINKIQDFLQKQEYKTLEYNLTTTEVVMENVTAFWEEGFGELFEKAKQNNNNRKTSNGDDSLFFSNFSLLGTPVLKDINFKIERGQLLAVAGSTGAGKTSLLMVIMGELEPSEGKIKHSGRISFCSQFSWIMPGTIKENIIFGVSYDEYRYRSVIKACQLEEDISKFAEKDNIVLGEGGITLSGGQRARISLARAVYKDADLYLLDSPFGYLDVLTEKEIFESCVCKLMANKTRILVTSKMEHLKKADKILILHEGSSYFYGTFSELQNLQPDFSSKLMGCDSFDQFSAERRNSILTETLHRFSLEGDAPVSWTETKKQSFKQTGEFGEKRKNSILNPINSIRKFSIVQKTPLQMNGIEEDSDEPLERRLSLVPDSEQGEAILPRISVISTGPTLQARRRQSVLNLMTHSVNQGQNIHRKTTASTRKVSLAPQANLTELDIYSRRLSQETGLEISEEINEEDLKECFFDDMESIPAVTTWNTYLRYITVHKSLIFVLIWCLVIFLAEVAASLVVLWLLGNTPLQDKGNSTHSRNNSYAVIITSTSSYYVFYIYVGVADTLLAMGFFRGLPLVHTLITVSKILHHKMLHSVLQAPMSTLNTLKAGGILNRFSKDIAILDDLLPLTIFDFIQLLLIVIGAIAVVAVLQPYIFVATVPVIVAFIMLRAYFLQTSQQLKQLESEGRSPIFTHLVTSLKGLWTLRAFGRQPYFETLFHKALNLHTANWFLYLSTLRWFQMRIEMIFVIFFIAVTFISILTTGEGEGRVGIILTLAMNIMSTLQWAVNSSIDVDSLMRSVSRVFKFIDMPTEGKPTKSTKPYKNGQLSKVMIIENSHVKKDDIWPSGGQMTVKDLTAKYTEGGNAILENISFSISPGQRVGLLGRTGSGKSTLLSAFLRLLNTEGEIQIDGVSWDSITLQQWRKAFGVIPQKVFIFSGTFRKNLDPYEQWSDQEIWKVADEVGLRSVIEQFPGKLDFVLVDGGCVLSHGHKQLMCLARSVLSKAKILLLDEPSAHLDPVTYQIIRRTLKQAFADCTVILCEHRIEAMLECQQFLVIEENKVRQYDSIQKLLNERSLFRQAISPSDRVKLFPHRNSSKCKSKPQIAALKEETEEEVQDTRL", "experiment": "T84 assay (FLIPR membrane potential dye, forskolin/IBMX-stimulated CFTR channel activity)", "assay_type": "cell-based", "description": "(§1) For example, Human colonic T84 cells can be acquired from the European Collection of Cell Cultures (ECACC) and grown in standard culture conditions as described by the supplier. On the day before assay 25,000 T84 cells per well are plated into standard black walled, clear bottom 384-well assay plates in standard growth medium consisting of DMEM:F12 with 10% FBS and incubated overnight. On the day of the assay the plates are washed using a standard assay buffer (HBSS with 10 mM Hepes) and incubated for 15 minutes in serum free cell culture medium before the addition of a commercially available membrane potential sensitive fluorescent dye (FLIPRRed membrane potential dye, Molecular Devices Corporation). T84 cells are incubated with the FLIPRRed membrane potential dye for 45 minutes in the presence and absence of test compound before being transferred to a commercially available fluorescence imaging plate reader (FLIPR384, Molecular Devices Corporation). Fluorescence levels are monitored continuously every second for 150 seconds; after an initial 10 second baseline, CFTR channel activity is stimulated through the addition of 10 μM forskolin in the presence of 100 μM of the phosphodiesterase inhibitor iso-butyl-methylxanthine (IBMX). Addition of the forskolin leads to the activation of intracellular adenylyl cylase 1, elevating cAMP levels and results in the phosphorylation and opening of CFTR anion channels. CFTR channel opening causes chloride ion efflux and subsequent depolarization of the cells, which is measured by an increase in fluorescence. CFTR inihibitor compounds prevent cell depolarization and the associatred increase in fluorescence.\nas §1, with “Human colonic” for “For example, Human colonic”, “T84 cells are acquired from” for “T84 cells can be acquired from”, “(ECACC) and are grown in” for “(ECACC) and grown in”, “10 μM Forskolin in the” for “10 μM forskolin in the”, “fluorescence. CFTR inhibitor compounds prevent” for “fluorescence. CFTR inihibitor compounds prevent”, “and the associated increase in” for “and the associatred increase in”", "key": {"[1]": {"details": "isoxazole-containing compounds (Table 10, 10′, 11, 11′), read-out: IC50"}, "[2]": {"details": "oxadiazole-containing compounds (a series), average of at least 2 runs unless annotated n = 1, read-out: IC50"}, "[3]": {"details": "imidazole and triazole-containing compounds (Tables 13, 14, 14′), read-out: IC50 (μM) (T84 assay)"}}, "note": "Like-named read-outs stand apart in the source and are kept apart here."}
{"smiles": "O=C(c1cc(-c2cc(Br)c(O)c(Br)c2)on1)N1CCN(c2ccc(Cl)c(Cl)c2)CC1", "note": "[10g, (5-(3,5-dibromo-4-hydroxyphenyl)isoxazol-3-yl)(4-(3,4-dichlorophenyl)piperazin-1-yl)methanone]", "values": [{"measurement": "IC50", "setting": "[1]", "result": 7.4, "unit": "µM"}]}
{"smiles": "Oc1c(Cl)cc(-c2nnc(Oc3ccc(Oc4ccccc4)cc3)s2)cc1Cl", "note": "[10h, 2,6-dichloro-4-(5-(4-phenoxyphenoxy)-1,3,4-thiadiazol-2-yl)phenol]", "values": [{"measurement": "IC50", "setting": "thiadiazole-containing compounds (Table 12), read-out: IC50", "result": 20.8, "unit": "µM"}]}
{"smiles": "CN(Cc1cccc(C(F)(F)F)c1)C(=O)c1nc(-c2cc(Br)c(O)c(Br)c2)no1", "note": "[11a, 3-(3,5-dibromo-4-hydroxyphenyl)-N-methyl-N-(3-(trifluoromethyl)benzyl)-1,2,4-oxadiazole-5-carboxamide]", "values": [{"measurement": "IC50", "setting": "[2]", "result": 7.74, "unit": "µM"}]}
{"smiles": "COc1ccccc1N1CCN(C(=O)c2cc(-c3cc(Br)c(O)c(Br)c3)on2)CC1", "note": "[11g, (5-(3,5-dibromo-4-hydroxyphenyl)isoxazol-3-yl)(4(2-methoxyphenyl)piperazin-1-yl)methanone]", "values": [{"measurement": "IC50", "setting": "[1]", "result": 14.2, "unit": "µM"}]}
{"smiles": "O=C(NCc1cccc(OC(F)(F)F)c1)c1nc(-c2cc(Br)c(O)c(Br)c2)no1", "note": "[12a, 3-(3,5-dibromo-4-hydroxyphenyl)-N-(3-(trifluoromethoxy)benzyl)-1,2,4-oxadiazole-5-carboxamide]", "values": [{"measurement": "IC50", "setting": "[2]", "result": 7.89, "unit": "µM"}]}
{"smiles": "O=C(c1cc(-c2cc(Cl)c(O)c(Cl)c2)on1)N1CCC(Cc2ccccc2)CC1", "note": "[12g, (4-benzylpiperidin-1-yl)(5-(3,5-dichloro-4-hydroxyphenyl)isoxazol-3-yl)methanone]", "values": [{"measurement": "IC50", "setting": "[1]", "result": 6.51, "unit": "µM"}]}
{"smiles": "O=C(NCCC(c1ccccc1)c1ccccc1)c1nc(-c2cc(Br)c(O)c(Br)c2)no1", "note": "[14a, 3-(3,5-dibromo-4-hydroxyphenyl)-N-(3,3-diphenylpropyl)-1,2,4-oxadiazole-5-carboxamide]", "values": [{"measurement": "IC50", "setting": "[2]", "result": 8.92, "unit": "µM"}]}
{"smiles": "O=C(NC(c1ccccc1)c1ccccc1)c1nc(-c2cc(Cl)c(O)c(Cl)c2)no1", "note": "[15a, N-benzhydryl-3-(3,5-dichloro-4-hydroxyphenyl)-1,2,4-oxadiazole-5-carboxamide]", "values": [{"measurement": "IC50", "setting": "[2]", "result": 9, "unit": "µM"}]}
{"smiles": "O=C(c1nc(-c2cc(Br)c(O)c(Br)c2)no1)N1CCN(c2ccccc2)CC1", "note": "[16a, (3-(3,5-dibromo-4-hydroxyphenyl)-1,2,4-oxadiazol-5-yl)(4-phenylpiperazin-1-yl)methanone]", "values": [{"measurement": "IC50", "setting": "[2]", "result": 9.13, "unit": "µM"}]}
{"smiles": "O=C(c1nc(-c2cc(Br)c(O)c(Br)c2)no1)N1CCC(Cc2ccccc2)CC1", "note": "[18a, (4-benzylpiperidin-1-yl)(3-(3,5-dibromo-4-hydroxyphenyl)-1,2,4-oxadiazol-5-yl)methanone]", "values": [{"measurement": "IC50", "setting": "[2]", "result": 12.3, "unit": "µM"}]}
{"smiles": "O=C(c1nc(-c2cc(Br)c(O)c(Br)c2)no1)N1CCN(c2ccc(Cl)cc2F)CC1", "note": "[19a, (4-(4-chloro-2-fluorophenyl)piperazin-1-yl)(3-(3,5-dibromo-4-hydroxyphenyl)-1,2,4-oxadiazol-5-yl)methanone]", "values": [{"measurement": "IC50", "setting": "[2]", "result": 7.1, "unit": "µM"}]}
{"smiles": "O=C(NCc1cc(C(F)(F)F)cc(C(F)(F)F)c1)c1nc(-c2cc(Br)c(O)c(Br)c2)no1", "note": "[20a, N-(3,5-bis(trifluoromethyl)benzyl)-3-(3,5-dibromo-4-hydroxyphenyl)-1,2,4-oxadiazole-5-carboxamide]", "values": [{"measurement": "IC50", "setting": "[2]", "result": 10.5, "unit": "µM"}]}
{"smiles": "O=C(c1nc(-c2cc(Br)c(O)c(Br)c2)no1)N(Cc1cccc(C(F)(F)F)c1)Cc1cccc(C(F)(F)F)c1", "note": "[21a, 3-(3,5-dibromo-4-hydroxyphenyl)-N,N-bis(3-(trifluoromethyl)benzyl)-1,2,4-oxadiazole-5-carboxamide]", "values": [{"measurement": "IC50", "setting": "[2]", "result": 10.9, "unit": "µM"}]}
{"smiles": "CN(C(=O)c1ncn(-c2cc(Cl)c(O)c(Cl)c2)n1)c1ccc(OC(F)(F)F)cc1", "note": "[21i]", "values": [{"measurement": "IC50", "setting": "[3]", "result": 15.7, "unit": "µM"}]}
{"smiles": "O=C(NCc1ccc(Cl)c(Cl)c1)c1nc(-c2cc(Br)c(O)c(Br)c2)no1", "note": "[22a, 3-(3,5-dibromo-4-hydroxyphenyl)-N-(3,4-dichlorobenzyl)-1,2,4-oxadiazole-5-carboxamide]", "values": [{"measurement": "IC50", "setting": "[2]", "result": 11, "unit": "µM"}]}
{"smiles": "CN(Cc1ccc(Cl)cc1)C(=O)c1ncn(-c2cc(Cl)c(O)c(Cl)c2)n1", "note": "[22i, N-(4-chlorobenzyl)-1-(3,5-dichloro-4-hydroxyphenyl)-N-methyl-1H-1,2,4-triazole-3-carboxamide]", "values": [{"measurement": "IC50", "setting": "[3]", "result": 18.1, "unit": "µM"}]}
{"smiles": "O=C(NCc1cccc(F)c1)c1nc(-c2cc(Br)c(O)c(Br)c2)no1", "note": "[23a, 3-(3,5-dibromo-4-hydroxyphenyl)-N-(3-fluorobenzyl)-1,2,4-oxadiazole-5-carboxamide]", "values": [{"measurement": "IC50", "setting": "[2]", "result": 12.7, "unit": "µM"}]}
{"smiles": "O=C(Nc1cccc(OC(F)(F)F)c1)c1nc(-c2cc(Br)c(O)c(Br)c2)no1", "note": "[24a, 3-(3,5-Dibromo-4-hydroxyphenyl)-N-(3-(trifluoromethoxy)phenyl)-1,2,4-oxadiazole-5-carboxamide]", "values": [{"measurement": "IC50", "setting": "[2]", "result": 13.1, "unit": "µM"}]}
{"smiles": "CC(C)(C)c1ccc(N2CCN(C(=O)c3nc(-c4cc(Br)c(O)c(Br)c4)no3)CC2)cc1", "note": "[25a, (4-(4-tert-butylphenyl)piperazin-1-yl)(3-(3,5-dibromo-4-hydroxyphenyl)-1,2,4-oxadiazol-5-y1)methanone]", "values": [{"measurement": "IC50", "setting": "[2]", "result": 10.9, "unit": "µM"}]}
{"smiles": "O=C(NCc1cccc(-c2ccccc2)c1)c1ncn(-c2cc(Cl)c(O)c(Cl)c2)n1", "note": "[25i, N-(biphenyl-3-ylmethyl)-1-(3,5-dichloro-4-hydroxyphenyl)-1H-1,2,4-triazole-3-carboxamide]", "values": [{"measurement": "IC50", "setting": "[3]", "result": 3.7, "unit": "µM"}]}
{"smiles": "COc1ccccc1N1CCN(C(=O)c2nc(-c3cc(Br)c(O)c(Br)c3)no2)CC1", "note": "[26a, (3-(3,5-dibromo-4-hydroxyphenyl)-1,2,4-oxadiazol-5-yl)(4-(2-methoxyphenyl)piperazin-1-yl)methanone]", "values": [{"measurement": "IC50", "setting": "[2]", "result": 14.5, "unit": "µM"}]}
{"smiles": "CN(C)c1cccc(CNC(=O)c2ncn(-c3cc(Cl)c(O)c(Cl)c3)n2)c1", "note": "[26i, 1-(3,5-dichloro-4-hydroxyphenyl)-N-(3-(dimethylamino)benzyl)-1H-1,2,4-triazole-3-carboxamide]", "values": [{"measurement": "IC50", "setting": "[3]", "result": 3.92, "unit": "µM"}]}
{"smiles": "O=C(NCc1cccc(C(F)(F)F)c1)c1nc(-c2cc(Br)c(O)c(Br)c2)no1", "note": "[27a, 3-(3,5-dibromo-4-hydroxyphenyl)-N-(3-(trifluoromethyl)benzyl)-1,2,4-oxadiazole-5-carboxamide]", "values": [{"measurement": "IC50", "setting": "[2]", "result": 14.6, "unit": "µM"}]}
{"smiles": "O=C(NCc1cc(Cl)ccc1F)c1ncn(-c2cc(Cl)c(O)c(Cl)c2)n1", "note": "[27i, N-(5-chloro-2-fluorobenzyl)-1-(3,5-dichloro-4-hydroxyphenyl)-1H-1,2,4-triazole-3-carboxamide]", "values": [{"measurement": "IC50", "setting": "[3]", "result": 24.4, "unit": "µM"}]}
{"smiles": "CN(Cc1ccccc1)C(=O)c1nc(-c2cc(Br)c(O)c(Br)c2)no1", "note": "[28a, N-benzyl-3-(3,5-dibromo-4-hydroxyphenyl)-N-methyl-1,2,4-oxadiazole-5-carboxamide]", "values": [{"measurement": "IC50", "setting": "[2]", "result": 15.3, "unit": "µM"}]}
{"smiles": "CC(C)Oc1ccc(CNC(=O)c2ncn(-c3cc(Cl)c(O)c(Cl)c3)n2)cc1", "note": "[28i, 1-(3,5-dichloro-4-hydroxyphenyl)-N-(4-isopropoxybenzyl)-1H-1,2,4-triazole-3-carboxamide]", "values": [{"measurement": "IC50", "setting": "[3]", "result": 16.8, "unit": "µM"}]}
{"smiles": "O=C(NCc1ccc(OC(F)(F)F)cc1)c1nc(-c2cc(Br)c(O)c(Br)c2)no1", "note": "[29a, 3-(3,5-Dibromo-4-hydroxyphenyl)-N-(4-(trifluoromethoxy)benzyl)-1,2,4-oxadiazole-5-carboxamide]", "values": [{"measurement": "IC50", "setting": "[2]", "result": 13.8, "unit": "µM"}]}
{"smiles": "O=C(NCc1ccc(F)c(C(F)(F)F)c1)c1ncn(-c2cc(Cl)c(O)c(Cl)c2)n1", "note": "[29i, 1-(3,5-dichloro-4-hydroxyphenyl)-N-(4-fluoro-3-(trifluoromethyl)benzyl)-1H-1,2,4-triazole-3-carboxamide]", "values": [{"measurement": "IC50", "setting": "[3]", "result": 7.52, "unit": "µM"}]}
{"smiles": "O=C(NCc1ccc(Cl)c(C(F)(F)F)c1)c1nc(-c2cc(Br)c(O)c(Br)c2)no1", "note": "[30a, N-(4-chloro-3-(trifluoromethyl)benzyl)-3-(3,5-dibromo-4-hydroxyphenyl)-1,2,4-oxadiazole-5-carboxamide]", "values": [{"measurement": "IC50", "setting": "[2]", "result": 16.2, "unit": "µM"}]}
